# Assay results reported in US6613718B2, “Aryl ether derivatives and processes for their preparation and herbicidal and desiccant compositions containing them” (Ishihara Sangyo Kaisha, Ltd., priority 2001, dated 2003).
# Experiments:
# Assay type in all cases: in vivo
# [1] = test system: upland rice (Oryza sp., var.Tebonnet, RICE); assay: Post-emerge greenhouse screening, crop safety (phytotoxicity rating); conditions: 14 days after application
# Outline: (§1)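 Each compound, dissolved in acetone, was sprayed at 15–1000 g ai/ha. Pre-emerge pots were sown the previous day and watered from above right after treatment; post-emerge plants, 2-3 leaves, got 0.25% v/v surfactant. Injury was graded 0–100 on day 14.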
# [2] = test system: soybean (Glycine max L., var. Pella 86, SOY); assay: as above; conditions: 14 days after application
# Outline: as §1
# [3] = test system: field corn (Zea mays L., var. Dekalb 535, CORN); assay: Pre-emerge greenhouse screening, crop safety (phytotoxicity rating); conditions: 14 days after application
# Outline: as §1
# [4] = test system: upland rice (Oryza sp., var.Tebonnet, RICE); assay: as above; conditions: 14 days after application
# Outline: as §1
# [5] = test system: soybean (Glycine max L., var. Pella 86, SOY); assay: as above; conditions: 14 days after application
# Outline: as §1
# [6] = test system: redroot pigweed (Amaranthus retroflexus, AMARE); assay: Post-emerge greenhouse herbicide activity screening, phytotoxicity rating
# Outline: as §1
# [7] = test system: barnyardgrass (Echinochloa crus-galli, ECHCG); assay: as above; conditions: 14 days after application
# Outline: as §1
# [8] = test system: ivyleaf morningglory (Ipomoea hederacea, IPOHE); assay: as above; conditions: 14 days after application
# Outline: as §1
# [9] = test system: velvetleaf (Abutilon theophrasti, ABUTH); assay: as above; conditions: 14 days after application
# Outline: as §1
# [10] = test system: lambsquarters (Chenopodium album, CHEAL); assay: as above
# Outline: as §1
# [11] = test system: green foxtail (Setaria viridis, SETVI); assay: as above
# Outline: as §1
# [12] = test system: johnsongrass (Sorghum halepense, SORHA); assay: as above; conditions: 14 days after application
# Outline: as §1
# [13] = test system: large crabgrass (Digitaria sanguinalis, DIGSA); assay: as above; conditions: 14 days after application
# Outline: as §1
# [14] = test system: sicklepod (Cassia obtusifolia, CASOB); assay: as above
# Outline: as §1
# [15] = test system: common ragweed (Ambrosia artemisiifolia L., AMBEL); assay: as above
# Outline: as §1
# [16] = test system: field corn (Zea mays L., var. Dekalb 535, CORN); assay: Post-emerge greenhouse screening, crop safety / corn selectivity (phytotoxicity rating); conditions: 14 days after application
# Outline: as §1
# [17] = test system: redroot pigweed (Amaranthus retroflexus, AMARE); assay: Pre-emerge greenhouse herbicide activity screening, phytotoxicity rating; conditions: 14 days after application
# Outline: as §1
# [18] = test system: barnyardgrass (Echinochloa crus-galli, ECHCG); assay: as above; conditions: 14 days after application
# Outline: as §1
# [19] = test system: ivyleaf morningglory (Ipomoea hederacea, IPOHE); assay: as above; conditions: 14 days after application
# Outline: as §1
# [20] = test system: velvetleaf (Abutilon theophrasti, ABUTH); assay: as above; conditions: 14 days after application
# Outline: as §1
# [21] = test system: lambsquarters (Chenopodium album, CHEAL); assay: as above; conditions: 14 days after application
# Outline: as §1
# [22] = test system: green foxtail (Setaria viridis, SETVI); assay: as above; conditions: 14 days after application
# Outline: as §1
# [23] = test system: johnsongrass (Sorghum halepense, SORHA); assay: as above; conditions: 14 days after application
# Outline: as §1
# [24] = test system: large crabgrass (Digitaria sanguinalis, DIGSA); assay: as above; conditions: 14 days after application
# Outline: as §1
# [25] = test system: sicklepod (Cassia obtusifolia, CASOB); assay: as above; conditions: 14 days after application
# Outline: as §1
# [26] = test system: common ragweed (Ambrosia artemisiifolia L., AMBEL); assay: as above; conditions: 14 days after application
# Outline: as §1
# [27] = 125 g ai/ha, 14 days after application
# [28] = 250 g ai/ha, 14 days after application
structure (smiles),measurement,setting,value
Cn1c(C(F)(F)F)cc(=O)n(-c2cc(Oc3ccccc3)c(C#N)cc2F)c1=S [Compound 1-69],"RICE crop damage, phytotoxicity rating (0-100 scale)",[1]; 125 g ai/ha,0
same,"RICE crop damage, phytotoxicity rating (0-100 scale)",[1]; 250 g ai/ha,0
same,"SOY crop damage, phytotoxicity rating (0-100 scale)",[2]; 125 g ai/ha,0
same,"SOY crop damage, phytotoxicity rating (0-100 scale)",[2]; 250 g ai/ha,50
same,"CORN crop damage, phytotoxicity rating (0-100 scale)",[3]; 125 g ai/ha,5
same,"CORN crop damage, phytotoxicity rating (0-100 scale)",[3]; 250 g ai/ha,10
same,"RICE crop damage, phytotoxicity rating (0-100 scale)",[4]; 125 g ai/ha,50
same,"RICE crop damage, phytotoxicity rating (0-100 scale)",[4]; 250 g ai/ha,60
same,"SOY crop damage, phytotoxicity rating (0-100 scale)",[5]; 125 g ai/ha,30
same,"SOY crop damage, phytotoxicity rating (0-100 scale)",[5]; 250 g ai/ha,50
same,AMARE phytotoxicity rating (0-100 scale),[6]; 31.3 g ai/ha,100
same,AMARE phytotoxicity rating (0-100 scale),[6]; 62.5 g ai/ha,100
same,AMARE phytotoxicity rating (0-100 scale),[6]; [27],99
same,AMARE phytotoxicity rating (0-100 scale),[6]; [28],100
same,ECHCG phytotoxicity rating (0-100 scale),[7]; 125 g ai/ha,0
same,ECHCG phytotoxicity rating (0-100 scale),[7]; 250 g ai/ha,25
same,IPOHE phytotoxicity rating (0-100 scale),[8]; 125 g ai/ha,100
same,IPOHE phytotoxicity rating (0-100 scale),[8]; 250 g ai/ha,100
same,ABUTH phytotoxicity rating (0-100 scale),[9]; 125 g ai/ha,100
same,ABUTH phytotoxicity rating (0-100 scale),[9]; 250 g ai/ha,100
same,CHEAL phytotoxicity rating (0-100 scale),[10]; 31.3 g ai/ha,80
same,CHEAL phytotoxicity rating (0-100 scale),[10]; 62.5 g ai/ha,80
same,CHEAL phytotoxicity rating (0-100 scale),[10]; [27],100
same,CHEAL phytotoxicity rating (0-100 scale),[10]; [28],100
same,SETVI phytotoxicity rating (0-100 scale),[11]; 31.3 g ai/ha,0
same,SETVI phytotoxicity rating (0-100 scale),[11]; 62.5 g ai/ha,50
same,SETVI phytotoxicity rating (0-100 scale),[11]; [27],0
same,SETVI phytotoxicity rating (0-100 scale),[11]; [28],30
same,SORHA phytotoxicity rating (0-100 scale),[12]; 125 g ai/ha,0
same,SORHA phytotoxicity rating (0-100 scale),[12]; 250 g ai/ha,0
same,DIGSA phytotoxicity rating (0-100 scale),[13]; 125 g ai/ha,0
same,DIGSA phytotoxicity rating (0-100 scale),[13]; 250 g ai/ha,30
same,CASOB phytotoxicity rating (0-100 scale),[14]; 31.3 g ai/ha,50
same,CASOB phytotoxicity rating (0-100 scale),[14]; 62.5 g ai/ha,65
same,CASOB phytotoxicity rating (0-100 scale),[14]; [27],75
same,CASOB phytotoxicity rating (0-100 scale),[14]; [28],70
same,AMBEL phytotoxicity rating (0-100 scale),[15]; 31.3 g ai/ha,70
same,AMBEL phytotoxicity rating (0-100 scale),[15]; 62.5 g ai/ha,70
same,AMBEL phytotoxicity rating (0-100 scale),[15]; [27],30
same,AMBEL phytotoxicity rating (0-100 scale),[15]; [28],35
same,"CORN crop damage, phytotoxicity rating (0-100 scale)",[16]; 125 g ai/ha,0
same,"CORN crop damage, phytotoxicity rating (0-100 scale)",[16]; 250 g ai/ha,5
same,AMARE phytotoxicity rating (0-100 scale),[17]; 125 g ai/ha,100
same,AMARE phytotoxicity rating (0-100 scale),[17]; 250 g ai/ha,100
same,ECHCG phytotoxicity rating (0-100 scale),[18]; 125 g ai/ha,90
same,ECHCG phytotoxicity rating (0-100 scale),[18]; 250 g ai/ha,95
same,IPOHE phytotoxicity rating (0-100 scale),[19]; 125 g ai/ha,100
same,IPOHE phytotoxicity rating (0-100 scale),[19]; 250 g ai/ha,100
same,ABUTH phytotoxicity rating (0-100 scale),[20]; 125 g ai/ha,100
same,ABUTH phytotoxicity rating (0-100 scale),[20]; 250 g ai/ha,100
same,CHEAL phytotoxicity rating (0-100 scale),[21]; 125 g ai/ha,100
same,CHEAL phytotoxicity rating (0-100 scale),[21]; 250 g ai/ha,100
same,SETVI phytotoxicity rating (0-100 scale),[22]; 125 g ai/ha,100
same,SETVI phytotoxicity rating (0-100 scale),[22]; 250 g ai/ha,100
same,SORHA phytotoxicity rating (0-100 scale),[23]; 125 g ai/ha,95
same,SORHA phytotoxicity rating (0-100 scale),[23]; 250 g ai/ha,95
same,DIGSA phytotoxicity rating (0-100 scale),[24]; 125 g ai/ha,99
same,DIGSA phytotoxicity rating (0-100 scale),[24]; 250 g ai/ha,100
same,CASOB phytotoxicity rating (0-100 scale),[25]; 125 g ai/ha,100
same,CASOB phytotoxicity rating (0-100 scale),[25]; 250 g ai/ha,99
same,AMBEL phytotoxicity rating (0-100 scale),[26]; 125 g ai/ha,100
same,AMBEL phytotoxicity rating (0-100 scale),[26]; 250 g ai/ha,100
